Here are results for 27 compounds from patent US20240262835A1, “PRMT5 INHIBITING COMPOUNDS AND USES THEREOF” (ANTENGENE DISCOVERY LIMITED, priority 2023, published 2024).

Bounds are passed on as bounds.

For data set [1], the system named is HCT116 homozygous MTAP knockout cells. Put plainly: HCT116 cell proliferation assay (CTG), MTAP knockout cells. The data set is classed as cell-based, human. Particulars: Cell Titer-Glo. As to the method: (§1) Control samples were analyzed in parallel.
(§2) On Day 0, 150 HCT116 parental or HCT116 homozygous MTAP knockout cells were seeded in 96-well plates in McCoy's 5A medium containing 10% fetal bovine serum and pen/strep. And the cells were incubated overnight at 37° C. and 5% CO2.
(§3) On Day 1, cells were treated with 9-point serial dilution of compound, using a top concentration of 50 μM, 1:5 serial dilution steps and, a DMSO-only control. And cells were incubated for 6 days.
(§4) On Day 7, cell viability was measured using a CTG assay Kit (Cell Titer-Glo; Promega, catalog no.: G7573) in accordance with the manufacturer's instructions. Assays plates were read on a EnVision™ Multilabel Reader using the Ultra-Sensitive luminescence model. The data were analyzed by GraphPad Prism 5.0 software, and the dose-effect curve was obtained by fitting the data using nonlinear S-curve regression, from which the IC50 value was calculated.

The test system of data set [2] is HCT116 parental (wild type) cells. Put plainly: HCT116 cell proliferation assay (CTG), parental cells. The data set is classed as cell-based, human. Particulars: Cell Titer-Glo. On the procedure: as §1, §2, §3, §4
For a further data set, the target named is PRMT5/MEP50 (Homo sapiens (Human), UniProt O14744). Put plainly: MTase-Glo methyl transferase assay (PRMT5 inhibition). Particulars: 50 nM PRMT5/MEP50, 25 μM SAM, 5 μM Histone H4 peptide (1-21), read-out: IC50 for PRMT5 inhibiting. The class given is biochemical. As to the method: The PRMT5 inhibitory activity of test compounds was determined using the MTase-Glo™ assay (Promega), which monitors the product (S-adenosyl homocysteine or SAH) of methyltransferase reactions. The PRMT5 MTase-Glo assays were conducted in a 384-well white ProxiPlate (PerkinElmer, catalog no.: 6008280) in a total volume of 12 μL. The PRMT5 enzymatic reaction (in 4 μL) contained 50 nM PRMT5/MEP50 (Reaction Biology Corp, catalog no.: HMT-22-148), 25 μM S-adenosyl methionine (SAM, Promega), 5 μM Histone H4 peptide (1-21) (BPS Bioscience, catalog no.: 52018-2) and five-fold serially diluted compounds in a reaction buffer of 50 mM Tris (pH 8.0), 50 mM NaCl, 0.01% Tween 20, 0.01% BSA, and 1 mM DTT. The test compounds were pre-incubated with PRMT5/MEP50 and Histone H4 peptide for 20 minutes at room temperature before the addition of SAM to initiate the PRMT5 reaction. The reaction was allowed to proceed for 1 hour at 37° C. and was terminated by 2 μL of 3× MTase-Glo™ Reagent (Promega) and 150 μM EPZ015666 (Selleck, catalog no.: 1616391-65-1). After a 30-minute incubation at room temperature, 6 μL of MTase-Glo™ Detection Solution (Promega) was added and the plate was incubated at room temperature for an additional 30 minutes. The light signal corresponding to the amount of SAH produced by the PRMT5 reaction was subsequently measured using an Envision multimode reader (PerkinElmer). IC50 and Ki values were obtained by analyzing dose-response curves using GraphPad Prism.

Data set [3] has as its target hERG potassium ion channel (Homo sapiens (Human), UniProt Q12809). Put plainly: hERG potassium ion channel inhibition assay (automated patch-clamp, CHO-hERG cells). The class given is cell-based. The note with it: Qpatch, highest test concentration 40.00 μM. As to the method: Drug-hERG interaction was measured by automated patch-clamp methods, with cisapride as positive control.
1.1 CHO-hERG cells were cultured in 175 cm^2 culture bottle. After the cell density grew to 60-80%, the culture medium was removed, washed with 7 mL of phosphate buffered saline (PBS), and then digested with 3 mL Detachin.
1.2 After the digestion was complete, 7 mL culture solution was added for neutralization, and then centrifuged, the clear solution was sucked, and 5 mL culture solution was added for re-suspension to ensure the cell density was 2˜5×10^6/mL.
The process of single-cell high-impedance sealing and whole-cell pattern formation was all automatically completed by Qpatch instrument. After obtaining whole-cell recording mode, the cell was pinching at −80 millivolts. Before giving a 5-second +40 millivolt depolarization stimulus, a 50-millisecond pre-voltage of −50 millivolts was given first, and then repolarized to −50 millivolts for 5 seconds. Go back to −80 millivolts. This voltage stimulation was applied every 15 seconds, recorded for 2 minutes, then extracellular fluid was given and recorded for 5 minutes, and then the administration process began. The concentration of test compound was given from the lowest test concentration for 2.5 minutes per test concentration. After continuous administration of all concentrations, the positive control 3 μM cisapride was given. At least 2 cells were tested for each concentration (n≥2).
4.1 The compound mother liquor was diluted with DMSO, and 10 μL compound stock solution was added to 20 μL DMSO solution, which was continuously 3-fold diluted to 6 DMSO-concentrations.
4.2 4 μL of test compounds in 6 DMSO-concentrations were added to 396 μL extracellular solution and were 100-fold diluted to 6 intermediate concentrations. Then, 80 μL of test compounds in 6 intermediate concentrations were added to 320 μL extracellular solution and were 5-fold diluted to the final concentration to be tested.
4.3 The highest test concentration was 40.00 μM, and six test concentrations were 40.00, 13.33, 4.44, 1.48, 0.49, 0.16 μM, respectively.
4.5 Entire dilution process for test compound preparation was performed by Bravo instrument.
The experimental data were analyzed by GraphPad Prism 5.0 software.

The mark [4] stands for this setting: Homo sapiens, HCT-116, 6 days treatment.

Chain of PRMT5/MEP50 (O14744 whole entry): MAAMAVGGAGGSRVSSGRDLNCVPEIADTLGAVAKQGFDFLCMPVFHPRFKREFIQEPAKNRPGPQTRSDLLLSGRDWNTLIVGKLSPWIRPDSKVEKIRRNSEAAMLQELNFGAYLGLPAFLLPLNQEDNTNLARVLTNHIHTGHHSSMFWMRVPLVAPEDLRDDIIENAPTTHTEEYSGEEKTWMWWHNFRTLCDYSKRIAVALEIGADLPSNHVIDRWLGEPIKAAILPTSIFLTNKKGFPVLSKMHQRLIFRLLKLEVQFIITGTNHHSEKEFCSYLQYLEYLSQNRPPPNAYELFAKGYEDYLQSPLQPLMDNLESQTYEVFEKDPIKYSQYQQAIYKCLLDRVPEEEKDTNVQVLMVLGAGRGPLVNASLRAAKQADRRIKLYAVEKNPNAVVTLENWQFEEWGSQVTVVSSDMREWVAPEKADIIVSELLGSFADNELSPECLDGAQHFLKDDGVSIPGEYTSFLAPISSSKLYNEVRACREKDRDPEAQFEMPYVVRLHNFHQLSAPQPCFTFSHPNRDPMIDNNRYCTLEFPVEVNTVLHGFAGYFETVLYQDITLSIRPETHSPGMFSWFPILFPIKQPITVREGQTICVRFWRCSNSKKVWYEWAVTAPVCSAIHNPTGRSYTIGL
Chain of PRMT5/MEP50 (Q9BQA1 whole entry partner): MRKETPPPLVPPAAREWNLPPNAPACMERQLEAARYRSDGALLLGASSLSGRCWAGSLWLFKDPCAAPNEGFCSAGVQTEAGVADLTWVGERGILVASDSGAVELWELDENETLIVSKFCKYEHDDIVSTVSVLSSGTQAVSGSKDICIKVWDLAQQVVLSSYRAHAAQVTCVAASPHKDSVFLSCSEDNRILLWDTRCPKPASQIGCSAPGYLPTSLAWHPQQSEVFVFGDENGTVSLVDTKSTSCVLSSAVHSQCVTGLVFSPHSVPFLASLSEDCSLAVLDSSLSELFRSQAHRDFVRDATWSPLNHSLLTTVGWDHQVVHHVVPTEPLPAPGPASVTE
Chain of hERG potassium ion channel (Q12809 whole entry): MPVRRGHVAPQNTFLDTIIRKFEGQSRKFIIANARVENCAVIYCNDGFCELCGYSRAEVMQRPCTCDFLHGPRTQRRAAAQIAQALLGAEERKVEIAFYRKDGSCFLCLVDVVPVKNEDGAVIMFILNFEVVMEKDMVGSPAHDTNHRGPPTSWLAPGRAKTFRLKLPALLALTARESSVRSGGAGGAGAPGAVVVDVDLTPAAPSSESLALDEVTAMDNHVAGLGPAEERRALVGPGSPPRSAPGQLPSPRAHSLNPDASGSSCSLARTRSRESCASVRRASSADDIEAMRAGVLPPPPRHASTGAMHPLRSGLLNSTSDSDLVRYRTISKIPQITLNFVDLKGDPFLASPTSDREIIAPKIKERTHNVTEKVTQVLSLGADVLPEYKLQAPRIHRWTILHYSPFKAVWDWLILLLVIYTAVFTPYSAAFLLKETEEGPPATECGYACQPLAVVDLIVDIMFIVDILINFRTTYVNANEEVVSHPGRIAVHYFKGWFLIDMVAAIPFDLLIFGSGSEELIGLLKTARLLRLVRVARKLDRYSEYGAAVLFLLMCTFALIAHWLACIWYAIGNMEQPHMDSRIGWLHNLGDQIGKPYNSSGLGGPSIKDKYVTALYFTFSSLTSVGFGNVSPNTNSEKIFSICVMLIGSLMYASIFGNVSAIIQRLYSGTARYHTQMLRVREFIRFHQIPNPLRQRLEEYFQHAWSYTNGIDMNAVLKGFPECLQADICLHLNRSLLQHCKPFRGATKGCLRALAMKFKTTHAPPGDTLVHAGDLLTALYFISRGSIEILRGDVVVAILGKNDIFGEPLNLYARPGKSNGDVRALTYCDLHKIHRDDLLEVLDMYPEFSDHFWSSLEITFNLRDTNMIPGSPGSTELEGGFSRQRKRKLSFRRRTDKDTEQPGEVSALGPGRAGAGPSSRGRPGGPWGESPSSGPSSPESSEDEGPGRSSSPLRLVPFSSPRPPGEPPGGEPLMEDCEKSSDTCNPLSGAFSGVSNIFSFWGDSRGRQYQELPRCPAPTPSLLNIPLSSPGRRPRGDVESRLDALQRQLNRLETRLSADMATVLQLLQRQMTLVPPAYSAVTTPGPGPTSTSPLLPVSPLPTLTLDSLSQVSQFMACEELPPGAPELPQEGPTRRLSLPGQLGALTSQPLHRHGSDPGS

On to `C[C@H]1CC[C@H](c2ccc3c(c2)CCC(=O)N3)N(C(=O)c2ccc3nc(N)c4cncn4c3c2)C1` [Compound 4], for which the values for the IC50 (in data set [1] (setting [4]); in data set [2] (setting [4]); on PRMT5/MEP50) were 0.012 µM, 0.105 µM and 0.028 µM, respectively.
On to `CN(C(=O)c1ccc2nc(N)c3cncn3c2c1)C1COc2cc(C(F)(F)F)ccc21` (stereo not shown) [Compound 16], for which, on PRMT5/MEP50, the IC50 was 0.231 µM.
Regarding `CN(C(=O)c1cnc2nc(N)c3cncn3c2c1)[C@@H]1COc2cc(C(F)(F)F)ccc21` [Compound 13], the 50% inhibitory concentration (IC50) in data set [1] (setting [4]) amounted to 0.181 µM; in data set [2] (setting [4]), 4.57 µM; on PRMT5/MEP50 it was 0.04 µM.
On the same counts, the results for `CN(C(=O)c1cc2c(cn1)nc(N)c1cncn12)C1COc2cc(C(F)(F)F)ncc21` (stereo not shown) [Compound 33] are 0.98 µM, 18 µM and 0.051 µM.
Turning to `CN(C(=O)c1ccc2nc(N)c3cncn3c2c1)C1COCc2cc(C(F)(F)F)ccc21` (stereo not shown) [Compound 23], the results for the concentration for half-maximal inhibition (IC50) (in data set [1] (setting [4]); in data set [2] (setting [4]); on PRMT5/MEP50) were 0.04 µM, 5.35 µM and 0.031 µM, respectively.
`C[C@H](c1ncccn1)N(Cc1ccc(C(F)(F)F)cn1)C(=O)c1ccc2nc(N)c3cncn3c2c1` [Compound 3]: the values for the half-maximal inhibitory concentration (IC50) (in data set [1] (setting [4]); in data set [2] (setting [4]); at PRMT5/MEP50) were 0.156 µM, 16 µM and 0.024 µM, respectively.
For the compound `CN(C(=O)c1ccc2nc(N)c3cncn3c2c1)C1COc2cc(C(F)(F)F)ccc21` (stereo not shown) [Compound 18], the IC50 on PRMT5/MEP50 was 0.42 µM.
`CN(C(=O)c1cc2c(cn1)nc(N)c1cncn12)C1COc2cc(C(F)(F)F)ccc21` (stereo not shown) [Compound 22]: the IC50 at PRMT5/MEP50 was 1.15 µM.
For the compound `CN(C(=O)c1ccc2nc(N)c3cncn3c2c1)C1COc2cc(C(F)(F)F)ccc21` (stereo not shown) [Compound 15], the IC50 in data set [1] (6 days treatment) amounted to 0.037 µM; in data set [2] (6 days treatment), 5.34 µM; at PRMT5/MEP50, 0.016 µM; in data set [3], 5.58 µM.
In the case of `CN(C(=O)c1cc2c(cn1)nc(N)c1cncn12)C1COc2nc(C(F)(F)F)ccc21` (stereo not shown) [Compound 29], the IC50 in data set [1] (setting [4]) came out at 0.377 µM; in data set [2] (setting [4]) it was 21.9 µM; at PRMT5/MEP50, 0.037 µM.
Turning to `C[C@H](c1ncccn1)N(Cc1ccc(C(F)(F)F)cn1)C(=O)c1cc2c(cc1F)nc(N)c1cncn12` [Compound 6], the IC50 in data set [1] (setting [4]) came to 0.017 µM; in data set [2] (setting [4]), 0.23 µM; on PRMT5/MEP50 it was 0.036 µM.
With `CN(C(=O)c1cc2c(cn1)nc(N)c1cncn12)C1CC(F)(F)c2cc(C(F)(F)F)ccc21` (stereo not shown) [Compound 25], at PRMT5/MEP50, the half-maximal inhibitory concentration (IC50) is 0.167 µM.
On the same count and under the same terms, the result for `CN(C(=O)c1cc2c(cn1)nc(N)c1cncn12)C1CC(F)(F)c2cc(C(F)(F)F)ccc21` (stereo not shown) [Compound 27] reads 1.69 µM.
For `C[C@H](c1ncccn1)N(Cc1ccc(C(F)(F)F)cn1)C(=O)c1ccc2nc(N)n3cncc3c2c1` [Compound 5], the IC50 in data set [1] (setting [4]) is 0.138 µM; in data set [2] (setting [4]), 1.58 µM; on PRMT5/MEP50, 0.026 µM.
For `CN(C(=O)c1ccc2nc(N)c3cncn3c2c1)C1COc2cc(C(F)(F)F)ncc21` (stereo not shown) [Compound 32] the same measures were 0.286 µM, 8.09 µM and 0.025 µM.
On the same counts, the results for `CN(C(=O)c1ccc2nc(N)c3cncn3c2c1)C1COc2cc(C(F)(F)F)ccc21` (stereo not shown) [Compound 11] are 0.064 µM, 7.68 µM and 0.051 µM.
In the case of `CN(C(=O)c1cc2c(cn1)nc(N)c1cncn12)C1COc2cc(C(F)(F)F)cnc21` (stereo not shown) [Compound 31], the 50% inhibitory concentration (IC50) was found to be 1.5 µM in data set [1] (setting [4]), 9.58 µM in data set [2] (setting [4]) and 0.096 µM on PRMT5/MEP50.
Regarding `CN(C(=O)c1cc2c(cn1)nc(N)c1cncn12)C1COc2cc(C(F)(F)F)ccc21` (stereo not shown) [Compound 20], at PRMT5/MEP50, the IC50 was determined as 0.455 µM.
`[2H]C([2H])([2H])N(C(=O)c1cc2c(cn1)nc(N)c1cncn12)C1COc2cc(C(F)(F)F)c(F)cc21` (stereo not shown) [Compound 35]: the IC50 in data set [1] (setting [4]) is 0.07 µM; in data set [2] (setting [4]) it was 3.21 µM; on PRMT5/MEP50, 0.087 µM.
On the same counts, the results for `C[C@H](c1ncccn1)N(Cc1ccc(C(F)(F)F)cn1)C(=O)c1cc2c(cn1)nc(N)c1cncn12` [Compound 10] are 0.033 µM, 0.495 µM and 0.054 µM.
On the same counts, the results for `CN(C(=O)c1ccc2nc(N)c3cncn3c2c1)C1COc2nc(C(F)(F)F)ccc21` (stereo not shown) [Compound 28] are 0.483 µM, greater than 50 µM and 0.037 µM.
As to `Cn1ncc(-c2ccc3c(c2)nc(N)c2cncn23)c1-c1c(F)cc2ccccc2c1C#N` [Compound 1], the IC50 came out at 0.073 µM in data set [1] (setting [4]), 4.37 µM in data set [2] (setting [4]) and 0.045 µM on PRMT5/MEP50.
On the same counts, the results for `[2H]C([2H])([2H])N(C(=O)c1ccc2nc(N)c3cncn3c2c1)C1COc2cc(OC(F)F)ccc21` (stereo not shown) [Compound 37] are 0.234 µM, 13.8 µM and 0.029 µM.
On the same counts, the results for `CN(C(=O)c1ccc2nc(N)c3cncn3c2c1)C1COc2cc(C(F)(F)F)cnc21` (stereo not shown) [Compound 30] are 4.02 µM, greater than 50 µM and 0.089 µM.
For `Cn1ncc(-c2ccc3c(c2)nc(N)c2cncn23)c1-c1c(F)c(Cl)cc(OC2CC2)c1C#N` [Compound 2] the same measures were 0.158 µM, 5.72 µM and 0.045 µM.
Turning to `[2H]C([2H])([2H])N(C(=O)c1cc2c(cn1)nc(N)c1cncn12)C1COc2c1ccc(C(F)(F)F)c2F` (stereo not shown) [Compound 34], the IC50 in data set [1] (setting [4]) amounted to 0.364 µM; in data set [2] (setting [4]), 14 µM; at PRMT5/MEP50 it was 0.07 µM.
Turning to `[2H]C([2H])([2H])N(C(=O)c1cc2c(cn1)nc(N)c1cncn12)C1COc2cc(C(F)(F)F)cc(F)c21` (stereo not shown) [Compound 36], the figures for the IC50 (in data set [1] (setting [4]); in data set [2] (setting [4]); on PRMT5/MEP50) were 0.11 µM, 9.62 µM and 0.053 µM, respectively.
